Experimental data taken from PMC7196072, “Cryo-EM structures of PAC1 receptor reveal ligand binding mechanism” (Cell Research, 2020).
Like-named read-outs stand apart in the source and are kept apart here.

Key:
[1] = tested on: PAC1R construct used in the cryo-EM studies; assay type: cell-based, human; settings: cAMP, BacMam CHO-K1, pH 7.4, 30 min 37 °C, average ± SD, N=3
Protocol: WT PAC1R and mutations used in the functional assay were cloned into pJIF1.1 for BacMam virus generation.
CHO-K1 cells were cultured in DMEM supplemented with 10% FBS and infected with BacMam viruses with a MOI of 100. 24 h after infection, cells were collected for membrane preparation or functional assay.
Activation of WT PAC1R and mutants was measured based on intracellular cAMP levels using Lance Ultra cAMP kit (PerkinElmer) according to the manufacturer’s protocol. […] Then 5 µL of 4× Eu-cAMP and 5 µL of 4× Ulight-Anti-cAMP working solutions were added to each well and incubated at room temperature for 60 min before reading with Envision (PerkinElmer). All signals (ratio of 665 nm/615 nm) were fit with a sigmoidal dose-response model using GraphPad Prism 7.
Both the average and S.D.
are calculated based 3 rounds of independent assays in 3 different days (N=3), and on each
day, duplicates were run for each dose on dose response curves.
# Ratio to WT is calculated as EC50 of mutation to EC50 of WT.
† The best-fit value of pEC50 from 3 different assays was used to calculate p value in T-test,
between WT and each mutation, with 2-tailed and equal variance (homoscedastic).

[2] = cited from earlier work
From the text: As the major sensory and vasodilator neuropeptides, PACAP38 and VIP are involved in parasympathetic communication with the cranial vasculature. Abnormal activation and sensitization of the central trigeminovascular pain pathway mediate migraine and the release of these peptides.[5]

Compound	pEC50 [1]	induction of delayed migraine-like headaches ([2]; in vivo, iv)	induction of delayed migraine-like headaches ([2]; intravenous infusion)
CC[C@H](C)[C@H](NC(=O)CNC(=O)[C@H](CC(=O)O)NC(=O)[C@H](CO)NC(=O)[C@@H](N)Cc1cnc[nH]1)C(=O)N[C@@H](Cc1ccccc1)C(=O)N[C@H](C(=O)N[C@@H](CC(=O)O)C(=O)N[C@@H](CO)C(=O)N[C@@H](Cc1ccc(O)cc1)C(=O)N[C@@H](CO)C(=O)N[C@@H](CCCNC(=N)N)C(=O)N[C@@H](Cc1ccc(O)cc1)C(=O)N[C@@H](CCCNC(=N)N)C(=O)N[C@@H](CCCCN)C(=O)N[C@@H](CCC(N)=O)C(=O)N[C@@H](CCSC)C(=O)N[C@@H](C)C(=O)N[C@H](C(=O)N[C@@H](CCCCN)C(=O)N[C@@H](CCCCN)C(=O)N[C@@H](Cc1ccc(O)cc1)C(=O)N[C@@H](CC(C)C)C(=O)N[C@@H](C)C(=O)N[C@@H](C)C(=O)N[C@H](C(=O)N[C@@H](CC(C)C)C(=O)NCC(=O)N[C@@H](CCCCN)C(=O)N[C@@H](CCCNC(=N)N)C(=O)N[C@@H](Cc1ccc(O)cc1)C(=O)N[C@@H](CCCCN)C(=O)N[C@@H](CCC(N)=O)C(=O)N[C@@H](CCCNC(=N)N)C(=O)N[C@H](C(=O)N[C@@H](CCCCN)C(=O)N[C@@H](CC(N)=O)C(=O)N[C@@H](CCCCN)C(N)=O)C(C)C)C(C)C)C(C)C)[C@@H](C)O [PACAP38, pituitary adenylate cyclase-activating polypeptide]	9.71 ± 0.21	induces delayed migraine-like headaches	–
vasoactive intestinal polypeptide [VIP]	–	–	but not VIP induces delayed migraine-like headaches
